Results on 15 compounds are retold here after patent US20080044491A1, “METAL-CONTAINING FORMULATIONS AND METHODS OF USE” (priority 2006, published 2008).

Values after ≈ are worked out from the molar mass of the structure shown. “Also recorded” adds a separate entry of the source.

A short description of series [1]: Compatibility of nanocrystalline silver with excipients. In kind it is physicochemical. To be noted: 10% aqueous solution of excipient with nanocrystalline silver, glass vial, 40° C. overnight.
Another series has as its system Staphylococcus aureus. The series is described as follows: MIC assay (microdilution). In kind it is cell-based. The note with it: lactate solutions, nanocrystalline silver = range for 12 samples.
For series [2], the system named is Staphylococcus epidermidis. Nature of the series: MIC assay (microdilution). The note with it: S. epiderm (ATCC); lactate solutions; nanocrystalline silver = range for 12 samples. In kind it is cell-based. (In broth dilution the organism is exposed to a series of concentrations in liquid medium.)
A further series deals with Streptococcus pyogenes. The series is described as follows: MIC assay (microdilution). In kind it is cell-based. The note with it: lactate solutions, nanocrystalline silver = range for 12 samples.
For the next series, the system named is Streptococcus pneumoniae. The series is described as follows: MIC assay (microdilution). In kind it is cell-based. To be noted: lactate solutions, nanocrystalline silver = range for 12 samples.
A further series deals with Pseudomonas aeruginosa. The series is described as follows: MIC assay (microdilution). In kind it is cell-based. The note with it: lactate solutions, nanocrystalline silver = range for 12 samples.
For a further series, the system named is Escherichia coli. The series is described as follows: MIC assay (microdilution). In kind it is cell-based.
Series [3] has as its system Mycobacterium tuberculosis H37Ra (ATCC 25177). In kind it is cell-based.
The test system of series [4] is DNBS-induced colitis. The series is described as follows: DNBS-induced colitis in rat: total IBD score. In kind it is in vivo.
Description: Sulfasalazine (Sigma Chemicals, St Louis, Mo.), at a concentration of 120 mg/ml for intracolonic treatment and 30 mg/ml for oral treatment was used as the reference drug in all the experiments. Sulfasalazine was first dissolved in 0.1M NaOH at a concentration about 30-fold higher than the required final concentration, and then suspended in 1.5% PVA for oral dosing and 5.7% PVA for intracolonic dosing.
One group was not treated and served as no treatment group. Treatment began one day after administration of DNBS.
Macroscopic Observations: Body weight was recorded daily and the animals were examined for their physical appearance. After five days of treatment, animals were sacrificed. The colon was excised between the ileocecal junction and rectum, and opened longitudinally. After scoring of the consistency of the stool the colon was rinsed in normal saline, examined and thickness of the colonic wall and number and size of ulcers were scored. Stool consistency was graded on a scale of 0-3: 0=normal stool, well formed pellets rigid as normal; 1=loose stool, formed pellet with moisture, soft stool keeping in stool shape; 2=loose stool, stools that have abnormal form with much moisture, softer shapeless stool; 3=watery or bloody diarrhea.
Thickness of colonic wall was graded on a scale of 0-4: 0=normal, no thickness; 1=mild thickness in lower portion of the colon; 2=moderate thickness in localized area; 3=moderate thickness extending to the central portion of the colon; 4=severe thickness in the whole colon. Colonic ulceration was graded on a scale of 0-10: 0=no ulcers; 1=one small ulcer less than 2-3 mm; 2=one large ulcer more than 2-3 mm; 3=two large ulcerations more than 2-3 mm in diameter; 4=two or more sites of ulcerations extending 1 cm along the length; 5-10=when an area of ulceration extended more than 1 cm along the length of the colon, the score increases by 1 for each additional cm of involvement. The total IBD score, obtained by the sum of the scores of colonic ulcer, colon thickness and stool consistency for each animal, was calculated for each treatment group.
Statistical Analysis: The results are expressed as the mean ±SE. The statistical significance in the mean total IBD score, histopathological inflammation score, and the immunohistochemical staining of cytokines or MMP-9 was determined using Tukey-Kramer's multiple comparison tests following one-way analysis of variance (ANOVA). The data were calculated with the aid of Instat Graph Pad Software. Differences with a P value less than 0.05 were considered significant.
Methods: Colitis was induced in rats using DNBS as described in Example 25. Animals were treated intracolonically (250 μl of the test reagents) once a day for five days. […] Methods: Colitis was induced in rats using DNBS as described in Example 25. Animals were treated intracolonically (250 μl of the test reagents) once a day for five days.
Series [5] is described as follows: DNBS-induced colitis in rat: body weight change. In kind it is in vivo. The note with it: rats with DNBS-induced colitis (FIGS. 10, 11). The source says:
Animals: Male Sprague-Dawley rats, weighing approximately 250-300 gm were purchased from Charles River Laboratories (Raleigh, N.C.). The animals were housed under standard conditions with free access to food and water. They were acclimatized for 2-3 days before commencing the experiments. The study protocol was approved by the Institutional Animal Care and Use Committees (IACUC).
Induction of ulcerative colitis: Colitis was produced according to published methods. Animals were anesthetized by intraperitoneal injection of 75 mg/kg of ketamine plus 5 mg/kg of xylazine. A single intracolonic injection of 120 mg/ml of dinitrobenzenesulfonic acid (DNBS) (Sigma Chemicals, St. Louis, Mo.) in 250 micro liter of 50% ethanol was administered through a Tom Cat catheter (Kendall Sovereign, Mansfield, Mass.) with a closed-end tip, connected to a 1 ml syringe and placed 7 cm proximal to the anus. Lubricant was applied to the tip of the catheter before injection, to protect from mucosal injury. After instillation of DNBS, 0.5 ml of air was insufflated and the catheter was removed. […]
Macroscopic Observations: Body weight was recorded daily and the animals were examined for their physical appearance. […] After scoring of the consistency of the stool the colon was rinsed in normal saline, examined and thickness of the colonic wall and number and size of ulcers were scored. […]

The test system of series [6] is DNBS-induced colitis. Nature of the series: DNBS-induced colitis in rat: histopathological inflammation score of colon. In kind it is in vivo. To be noted: oral, 100 mg/kg, five days. The protocol: Histopathology: A piece of colonic tissue at 2-4 cm proximal to the anus was excised and fixed in 10% formalin and the sections were stained with hematoxylin and eosin. The remaining length of the colonic tissues was stored at −80° C. for subsequent biochemical assays. The histology slides were examined by a veterinary pathologist who was blinded to the treatment groups. The extent of microscopic mucosal damage of the colon was scored on scale of 0-5 as described with slight modification: 0=normal histological appearance; 1=histological damage limited to surface epithelium, mild infiltration of the submucosa; 2=focal ulceration and cell disruption limited to mucosa, abnormal appearance of colonic wall, mild infiltration of inflammatory cells; 3=focal, transmural inflammation and ulceration, with mild to moderate infiltration of inflammatory cells; 4=Extensive transmural ulceration and inflammation bordered by areas of normal mucosa, moderate infiltration of inflammatory cells; 5=extensive transmural ulceration and inflammation involving entire section from epithelium to serosa, severe infiltration of inflammatory cells.
Statistical Analysis: The results are expressed as the mean ±SE. […] The data were calculated with the aid of Instat Graph Pad Software. […]

The next series has as its system IL-1β. Nature of the series: Immunohistochemical staining of colonic tissue. The note with it: DNBS colitis, five days oral treatment. In kind it is in vivo, rat. On the procedure: (§1) Immunohistochemistry: A Universal Streptavidin/Biotin detection system (Thermo Shandon, Pittsburgh, Pa.) was used for immunohistochemical staining of formalin fixed, paraffin embedded biopsies of the colon. After dewaxing, and hydration, sections were treated with protein blocking agent to reduce non-specific binding of antibodies. The tissues were then incubated with rabbit anti-rat TNF-α, or mouse anti-rat IL-12 p70 antibodies (Biosource International, Inc, Camarillo, Calif.); rabbit anti-rat IL-1β (Serotec, Raleigh, N.C.) or rabbit anti-rat MMP-9 antibody (Chemicon International, Telecuma, Calif.) in 1% bovine serum albumin in phosphate buffered saline. Incubations with secondary antibodies, streptavidin/biotin, and chromogenic detection of peroxidase were performed according to the manufacturer's protocol. Sections were counterstained, dehydrated, mounted and examined. The intensity of the immuno-peroxidase staining was graded as described previously. Expression of cytokines was graded as: 0, no staining in the section; 1, less than 25% of the section; 2, 25-50% of the section; 3, 50-75% of the section; 4, >75% of the section with significant staining.

The subject of series [7] is MMP-9. Nature of the series: Immunohistochemical staining of colonic tissue. In kind it is in vivo, rat. The note with it: vs placebo and no treatment (FIG. 19). On the procedure: as §1
The test system of the next series is TNF-α. The series is described as follows: Immunohistochemical staining of colonic tissue. In kind it is in vivo, rat. The note with it: DNBS colitis, five days oral treatment. On the procedure: as §1
Series [8] deals with MMP-9. The series is described as follows: Gelatin zymography of colonic homogenates. In kind it is in vivo, rat. To be noted: oral 100 mg/kg. The protocol: Gelatin Zymography: Activities of MMP-9 and MMP-2 in colonic tissue homogenates were determined by gelatin zymography as described previously. Briefly, colonic homogenates were mixed with equal volume of zymograph sample buffer. Samples were loaded on a 10% SDS-polyacrylamide gel containing 0.1% gelatin. After electrophoresis, the SDS was removed from the gel by incubation with renaturing buffer containing 2% Triton-X-100 for 1 hour. The gel was incubated overnight in developing buffer containing 50 mM Tris-HCl, pH 7.8, 5 mM CaCl2, 0.2 M NaCl, 0.02% Brij-35. The gel was subsequently stained with Coumassie blue for 30 minutes and destained with destaining solution containing 8% acetic acid and 4% methanol. Gelatinolytic activity was determined as transparent bands against the blue background of stained gelatin. MMPs were identified by their molecular weight compared with the standards. Absence of a transparent band on the gel was evidenced as no MMP-9 or MMP-2 activity of the sample tested.

For another series, the system named is Enterobacter cloacae. Nature of the series: MIC assay (microdilution). In kind it is cell-based. To be noted: Ent. cloacae.

As to `CCCCCCCCCCCCCCCCCC(=O)O` [Stearic acid], in series [1], the “Reaction with nanocrystalline silver” value is on record as “Grey color - no discoloration”.

Take `CCCCCCCCCCCCCCCCO` [Cetyl alcohol]: the “Reaction with nanocrystalline silver” value in series [1] is recorded as “Grey color - no discoloration”.

As for silver oxide [Ag2O], the MIC (usually the lowest concentration found to suppress growth) against Staphylococcus aureus (S. aureus (ATCC)) was determined as 3 mg/L; against Staphylococcus aureus (S. aureus (clin.)) it was 6 mg/L; in series [2], 2 mg/L; in the series on Streptococcus pyogenes (S. pyog (clin. 303)) it was 2 mg/L; with Streptococcus pyogenes (S. pyog (clin. 304)), 3 mg/L; against Streptococcus pneumoniae (S. pneumo (clin 314)), 3 mg/L. For the same compound, the MIC in the series on Streptococcus pneumoniae (S. pneumo (clin 315)) is 2 mg/L; with Pseudomonas aeruginosa (P. aerug (ATCC)), 0.8 mg/L; against Pseudomonas aeruginosa (P. aerug. (clin.)) it was 2 mg/L; against Escherichia coli (E. coli (ATCC), lactate solutions, nanocrystalline silver = range for 12 samples), 0.8 mg/L. In addition, in [3], the “minimum inhibitory concentration (MIC)” value stood at 2.5 μg/ml silver. Moreover, the “total IBD score vs placebo” value in the series on DNBS-induced colitis [4] (intracolonic 250 μl once a day for five days, 0.25% homogenized) is recorded as “unable to show significant reduction”; in the series with DNBS-induced colitis [4] (intracolonic 250 μl once a day for five days, 0.25% sonicated nanodispersion) it was “but not 0.25% sonicated”; in the series with DNBS-induced colitis [4] (intracolonic 250 μl once a day for five days, 0.5% homogenized) it was “unable to show significant reduction”; in the series with DNBS-induced colitis [4] (intracolonic 250 μl once a day for five days, 0.5% sonicated nanodispersion) it was “significantly reduced the total IBD score”; in the series with DNBS-induced colitis [4] (intracolonic 250 μl once a day for five days, 1.5% sonicated nanodispersion) it was “significantly reduced the total IBD score”.

Regarding `O=C(O)c1cc(/N=N/c2ccc(S(=O)(=O)Nc3ccccn3)cc2)ccc1O` [sulfasalazine, salicylazosulfapyridine], the “total IBD score vs placebo” value is “Significant reduction; also recorded: significantly reduced total IBD score” with DNBS-induced colitis [4] (intracolonic, 100 mg/kg, five days) and “significantly reduced total IBD score” in the series with DNBS-induced colitis [4] (intracolonic, 100 mg/kg, five days, listed as Sulfasalazine). Also, the “total IBD score” value in the series with DNBS-induced colitis [4] (oral, 100 mg/kg, five days) is given as “significant reduction”. Further, the body weight change entry in series [5] is “started gaining body weight after one day of treatment”. The “histopathological inflammation vs placebo and untreated” value in the series with DNBS-induced colitis [6] is recorded as “significantly reduced”. For the same compound, in the series with IL-1β, the “expression of IL-1β (immunohistochemical staining)” value was “significantly reduced the expression”. For the same compound, in the series on MMP-9 [7], the “expression of MMP-9 (immunohistochemical staining)” value was “significantly reduced the expression”. Further, in the series on TNF-α, the “expression of TNF-α (immunohistochemical staining)” value is on record as “significantly reduced the expression”. In addition, the “MMP-9 activity (gelatin zymography)” value in the series on MMP-9 [8] is listed as “reduced MMP-9 activity”.

Turning to `OCc1ccccc1` [Benzyl alcohol], in series [1], the “Reaction with nanocrystalline silver” value was “Grey/slightly red”.

On to `O=C([O-])c1ccccc1.[Na+]` [Sodium benzoate], for which the “Reaction with nanocrystalline silver” value in series [1] was “White precipitate”.

As for `CCCCCCCCCCCCCCCCCC(=O)OCC(O)CO` (stereo not drawn) [Glycerol monostearate], the “Reaction with nanocrystalline silver” value in series [1] is “Brown discoloration”.

Regarding `CCCCCCCCCCCCCCCCCCO` [Cetearyl alcohol], in series [1], the “Reaction with nanocrystalline silver” value was “Light brown/green/black”.

As for Sodium parabens, the “Reaction with nanocrystalline silver” value in [1] is given as “Precipitation”.

Regarding `COC(=O)c1ccc(O)cc1` [Methylparaben], the “Reaction with nanocrystalline silver” value in series [1] is “Brown discoloration”.

Regarding `CCCCCCCCCCCCCC(=O)OC(C)C` [Isopropyl myristate], the “Reaction with nanocrystalline silver” value in series [1] is reported as “Grey color - no discoloration”.

Turning to `CCOCCOCCO` [Transcutol, diethylene glycol monoethyl ether], the “Reaction with nanocrystalline silver” value in [1] is recorded as “Grey color - no discoloration”.

For `CCCOC(=O)c1ccc(O)cc1` [Propylparaben], the “Reaction with nanocrystalline silver” value in series [1] is given as “Green discoloration”.

For `CC(O)CO` (stereo not drawn) [Propylene glycol], the “Reaction with nanocrystalline silver” value in series [1] is recorded as “Discoloration”.

With `OO` [Sample H2O2, hydrogen peroxide], in [1], the “Reaction with nanocrystalline silver” value is on record as “Brown discoloration after drying”. Besides, the MIC with Enterobacter cloacae (Catalase/SOD +) was greater than 500 mg/L; in the series with Enterobacter cloacae (Catalase/SOD −), 63 mg/L (≈ 1850 µM); with Escherichia coli (E. coli, Catalase/SOD +) it was greater than 500 mg/L; against Escherichia coli (E. coli, Catalase/SOD −) it was 31 mg/L (≈ 911 µM).
